For three compounds, toxin production and bacterial growth results are on record in patent US7208303B2, “Bacterial nitric oxide synthases and uses thereof” (Cornell Research Foundation, Inc., priority 2003, dated 2007).

Assay [1] relates to thaxtomin A production by S. turgidiscabies. Briefly: Thaxtomin A production by S. turgidiscabies cultures in presence of NOS inhibitors (HPLC). It counts as cell-based, Streptomyces turgidiscabies. Conditions: FIG. 4C, n=6. How it is done: (§1) Sonicated cell lysates from 3 mL cultures were run on 12% SDS-PAGE gels after 2.5 hr induction with 0.1 mM IPTG. […] The NOS intermediate N^ω-hydroxy-L-arginine (2 mM) and hydrogen peroxide (4 mM) were reacted with 20 μL of cell lysates shown in FIG. 4A and assayed for nitrite with the Griess reagents after 15 min.
(§2) Streptomyces turgidiscabies cultures were grown in oat bran broth or oat meal broth (Healy et al., Mol. Micro. 38:794–804 (2000); and Goyer et al., Phytopathology 88:442–445 (1998), which are hereby incorporated by reference in their entirety) inoculated with spores. After shaking at 150 rpm and 25° C. for 5–9 days the cultures were filtered and dry weight of the mycelia was measured. Thaxtomin was extracted from the filtrate with ethyl acetate, dried, redissolved in methanol, and quantified using HPLC (column: 5 μm C18; 250×4.6 mm; mobile phase: MeCN: H20:TFA (40:60:0.1)). In experiments investigating the suppression of thaxtomin production in the presence of L-NAME, this NOS inhibitor was dissolved in water, filter-sterilized, and added at the time of inoculation.
For stNOS to be responsible for thaxtomin nitration, stNOS should have NO synthase activity. Further, this activity and thaxtomin production should be arginine dependent. As predicted, overexpressed stNOS in E. coli produced nitrite from N-hydroxy-L-arginine in a standard NOS assay (FIGS. 4A–4B). N-hydroxy-L-arginine is an intermediate unique to the NOS catalytic reaction and nitrite represents the end product of NO reacting in oxygenated solution. NO synthase activity of the recombinant stNOS was inhibited by the selective NOS inhibitor nitro-L-arginine (FIG. 4B); nitro-L-arginine is the active form of Nitro-L-arginine methyl ester (NAME). NOS inhibitors were also evaluated for their effect on thaxtomin A production by S. turgidiscabies. […]

Another assay deals with S. turgidiscabies. Briefly: Bacterial growth of S. turgidiscabies cultures (dry weight of mycelia). Conditions: FIG. 4C. It counts as cell-based, Streptomyces turgidiscabies. As for the experimental part:
as §1, §2

Regarding `O=[N+]([O-])c1cccc2cn[nH]c12` [7-IN, 7-nitroindazole], the toxin production entry in assay [1] (1.2 μM) is reported as “inhibit toxin product”. The bacterial growth entry with S. turgidiscabies (1.2 μM) is “without affecting bacterial growth”.

Consider `N=C(N)NN` [AG, aminoguanidine], for which, in assay [1] (270 μM), the toxin production entry is given as “inhibit toxin product”. For the same compound, in the assay on S. turgidiscabies (270 μM), the bacterial growth entry is recorded as “without affecting bacterial growth”.

As for `CNC(=N)NCCC[C@H](N)C(=O)O` [NMMA, NG-monomethyl-L-arginine], in assay [1] (510 μM), the toxin production entry is recorded as “inhibit toxin product”. For the same compound, the bacterial growth result in the assay with S. turgidiscabies (510 μM) is given as “without affecting bacterial growth”.
